Data from patent EP4692114A1, “CALCITONIN ANALOGUE, AND DERIVATIVE THEREOF AND USE THEREOF” (Hangzhou Sciwind Biosciences Co., Ltd., priority 2023, dated 2024).
*1 amine or outer side, *2 acyl side, *3 side chain or, on linkers, in order; H or OH if unused. Where a SMILES comes first, the peptide text is derived from it. The star is where a group is joined. C20 diacid = O=C(O)CCCCCCCCCCCCCCCCCCC(=O)*; γGlu = O=C(O)[C@H](CCC(=O)[*:2])N[*:1]

Columns and labels:
[1] = Study of weight change and food consumption in rats; format: in vivo, SD (Sprague Dawley) rats; conditions: SD rats, subcutaneous, 10 nmol/kg; for Effect on reducing food intake: accumulated food intake recorded every 24 hours (FIGs. 7 and 9); for Effect on reducing body weight: recorded every 24 hours (FIGs. 6 and 8)
Excerpt: SD (Sprague Dawley) rats weighing 200-250 g were used for this study. The rats were received at least 10-14 days before the study began such that they could accommodate to the experimental environment. After arrival, they were exposed to a reversed light/dark cycle (i.e., lights switched off in daytime and on in nighttime) for two weeks and were individually housed for the first week so as to ensure high data accuracy and test sensitivity. Throughout the acclimation and experiment period, the rats had free access to food and water. 5-8 rats were assigned to each testing group for the derivatives and were subcutaneously administered the derivatives at a dose of 10 nmol/kg or a vehicle, and the dosing timepoint was recorded for each group. After dosing, the rats were put back into cages where they were housed and could have access to food and water. Food consumption and weight change of the rats were recorded online or manually every 24 hours.

human amylin receptors = molecular target: T1, human amylin receptors (Homo sapiens, UniProt O60896+P30988); experiment: Luciferase assay of amylin (amylin receptor/CRE-luc cell line); format: cell-based; conditions: stably transfected amylin receptor/CRE-luc CHO cells (CHO-K1/Gal5/AMY3), 24 hours incubation, luciferase readout;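 also: agonist potency from luminescence of cAMP response element-driven luciferase, EC50 derived from a standard curve of signal versus compound concentration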
T1 sequence (P30988 25-474): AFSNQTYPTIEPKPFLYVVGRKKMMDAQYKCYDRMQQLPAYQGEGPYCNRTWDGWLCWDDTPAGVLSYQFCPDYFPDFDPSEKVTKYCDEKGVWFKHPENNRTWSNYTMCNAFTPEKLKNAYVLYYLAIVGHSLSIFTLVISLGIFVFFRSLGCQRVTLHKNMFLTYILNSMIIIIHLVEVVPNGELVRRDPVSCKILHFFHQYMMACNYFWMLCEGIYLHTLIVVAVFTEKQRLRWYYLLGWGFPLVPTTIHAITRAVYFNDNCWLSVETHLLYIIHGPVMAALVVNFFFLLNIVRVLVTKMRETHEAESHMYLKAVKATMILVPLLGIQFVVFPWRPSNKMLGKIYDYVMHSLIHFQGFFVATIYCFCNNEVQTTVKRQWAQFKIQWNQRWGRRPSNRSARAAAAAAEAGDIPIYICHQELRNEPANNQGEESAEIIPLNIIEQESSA
T1 sequence (O60896 24-148 partner): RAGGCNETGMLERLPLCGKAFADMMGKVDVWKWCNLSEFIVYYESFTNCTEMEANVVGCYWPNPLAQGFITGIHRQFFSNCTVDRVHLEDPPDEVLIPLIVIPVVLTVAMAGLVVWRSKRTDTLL
Excerpt: The objective of this assay is to test the activity or potency of calcitonin analogues or derivatives on human amylin receptors in vitro using a luciferase assay.
Using the standard protocol, CHO-K1/Gal5/AMY3 cells (purchased from GenScript, with the calcitonin receptor and the receptor activity modifying peptide (RAMP) constructed already) were transfected with a plasmid containing a luciferase expression cassette driven by multiple copies of cAMP response elements (CREs). The cells were cultured in an F12 medium containing 200 ug/mL Zeocin, 2 ug/mL puromycin, 100 ug/mL hygromycin, and 400 ug/mL G418 to afford a stably transfected amylin receptor/CRE-luc cell line.
To each well of a white 96-well plate was added 50 µL of the tested sample solution at a respective concentration.
The stably transfected amylin receptor/CRE-luc CHO cells were resuspended in the growth medium at a certain density, and 50 µL of the cell suspension was added at a density of about 20000 cells per well to the white 96-well plate containing the tested sample solution. After incubation of 24 hours at 37°C and 5% CO2, 100 µL of a Luciferase substrate was added to each well, incubated for 3 minutes, and finally was tested for luminescence on SpectraMax L (Molecular Devices) with the software SoftMax Pro 7.0.3 GxP. A standard curve was plotted using the fluorescent intensities for calculation of EC50.

[2] = Heat accelerated stability assay under a neutral condition; format: physicochemical; conditions: pH about 7.4, 40°C; for Changes in characteristics or properties, 0d / Changes in characteristics or properties, 7d / Characteristics or properties on Day 26: 1 mg/mL, phosphate; for Concentration change (7d-0d)/%: Day 7 vs Day 0, reversed phase chromatography; for Purity Change% (7d-0d): purity from reversed phase chromatography-214 nm, Day 7 vs Day 0
Summary of the method: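 Peptide (1 mg/mL) with sodium dihydrogen phosphate (1.42 mg/mL) in water, pH ~7.4, was sterile-filtered and stored at 40 °C, sampled on days 7 and 26. After centrifugation, concentration and purity (target/total peak area) were measured by reversed-phase HPLC at 214 and 280 nm, water/0.05% TFA to acetonitrile gradient, 25 °C column.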

| Compound | Effect on reducing food intake [1] | Effect on reducing body weight [1] | EC50 (human amylin receptors) | Changes in characteristics or properties, 0d [2] | Changes in characteristics or properties, 7d [2] | Characteristics or properties on Day 26 [2] | Concentration change (7d-0d)/% [2] | Purity Change% (7d-0d) [2] | Concentration change on Day 26 as compared to Day 0 ([2]; Day 26 vs Day 0) |
| --- | --- | --- | --- | --- | --- | --- | --- | --- | --- |
| CC(C)C[C@H](NC(=O)[C@H](CCCNC(=N)N)NC(=O)CNC(=O)[C@H](CC(C)C)NC(=O)[C@@H](NC(=O)[C@H](C)NC(=O)[C@@H](NC(=O)[C@H](CO)NC(=O)[C@H](CC(C)C)NC(=O)[C@H](CCC(N)=O)NC(=O)[C@H](CO)NC(=O)[C@H](C)NC(=O)CC[C@H](NC(=O)CCCCCCCCCCCCCCCCCCC(=O)O)C(=O)O)[C@@H](C)O)C(C)C)C(=O)N[C@@H](CO)C(=O)N[C@@H](CCC(=O)O)C(=O)N[C@@H](CCC(=O)O)C(=O)N[C@@H](CC(C)C)C(=O)N[C@@H](Cc1c[nH]cn1)C(=O)N[C@@H](CCCNC(=N)N)C(=O)N[C@@H](CC(C)C)C(=O)N[C@@H](CCC(N)=O)C(=O)N[C@@H](CC(=O)O)C(=O)N[C@@H](Cc1ccc(O)cc1)C(=O)N1CCC[C@H]1C(=O)N[C@@H](CCCNC(=N)N)C(=O)N[C@H](C(=O)N[C@@H](CC(=O)O)C(=O)N[C@H](C(=O)NCC(=O)N[C@@H](CO)C(=O)NCC(=O)N[C@@H](CO)C(=O)N1CCC[C@H]1C(N)=O)C(C)C)[C@@H](C)O [M9] ({C20 diacid-γGlu}-ASQLSTAVLGRLSEELHRLQDYPRTDVGSGSP-NH2) | particularly effective | particularly effective | 0.017 nM | Clear | Clear | clear solution | No change (a decrease of less than 1% from the initial value to the detected content is denoted as "no change") | No change (a decrease of less than 1% from the initial value to the detected content is denoted as "no change") | – |
| CC(C)C[C@H](NC(=O)[C@H](CCCNC(=N)N)NC(=O)CNC(=O)[C@H](CC(C)C)NC(=O)[C@@H](NC(=O)[C@H](C)NC(=O)[C@@H](NC(=O)[C@H](CO)NC(=O)[C@H](CC(C)C)NC(=O)[C@H](CCC(N)=O)NC(=O)[C@H](CO)NC(=O)[C@H](C)NC(=O)CC[C@H](NC(=O)CCCCCCCCCCCCCCCCCCC(=O)O)C(=O)O)[C@@H](C)O)C(C)C)C(=O)N[C@@H](CO)C(=O)N[C@@H](CCC(N)=O)C(=O)N[C@@H](CCC(=O)O)C(=O)N[C@@H](CC(C)C)C(=O)N[C@@H](Cc1c[nH]cn1)C(=O)N[C@@H](CCCNC(=N)N)C(=O)N[C@@H](CC(C)C)C(=O)N[C@@H](CCC(=O)O)C(=O)N[C@@H](CC(=O)O)C(=O)N[C@@H](Cc1ccc(O)cc1)C(=O)N1CCC[C@H]1C(=O)N[C@@H](CCCNC(=N)N)C(=O)N[C@H](C(=O)N[C@@H](CC(=O)O)C(=O)N[C@H](C(=O)NCC(=O)N[C@@H](CO)C(=O)NCC(=O)N[C@@H](CO)C(=O)N1CCC[C@H]1C(N)=O)C(C)C)[C@@H](C)O [M13] ({C20 diacid-γGlu}-ASQLSTAVLGRLSQELHRLEDYPRTDVGSGSP-NH2) | particularly effective | particularly effective | 0.017 nM | Clear | Clear | clear solution | – | No change (a decrease of less than 1% from the initial value to the detected content is denoted as "no change") | less than 2% |
| CC(C)C[C@H](NC(=O)[C@H](CCCNC(=N)N)NC(=O)CNC(=O)[C@H](CC(C)C)NC(=O)[C@@H](NC(=O)[C@H](C)NC(=O)[C@@H](NC(=O)[C@H](CO)NC(=O)[C@H](CC(C)C)NC(=O)[C@H](CCC(N)=O)NC(=O)[C@H](CO)NC(=O)[C@H](C)NC(=O)CC[C@H](NC(=O)CCCCCCCCCCCCCCCCCCC(=O)O)C(=O)O)[C@@H](C)O)C(C)C)C(=O)N[C@@H](CO)C(=O)N[C@@H](CCC(N)=O)C(=O)N[C@@H](CCC(=O)O)C(=O)N[C@@H](CC(C)C)C(=O)N[C@@H](Cc1c[nH]cn1)C(=O)N[C@@H](CCCNC(=N)N)C(=O)N[C@@H](CC(C)C)C(=O)N[C@@H](CCC(N)=O)C(=O)N[C@@H](CC(=O)O)C(=O)N[C@@H](Cc1ccc(O)cc1)C(=O)N1CCC[C@H]1C(=O)N[C@@H](CCCNC(=N)N)C(=O)N[C@H](C(=O)N[C@@H](CC(=O)O)C(=O)N[C@H](C(=O)NCC(=O)N[C@@H](C)C(=O)NCC(=O)N[C@@H](CO)C(=O)N1CCC[C@H]1C(N)=O)C(C)C)[C@@H](C)O [M19] ({C20 diacid-γGlu}-ASQLSTAVLGRLSQELHRLQDYPRTDVGAGSP-NH2) | prominent effect | prominent effect | 0.016 nM | Clear | Clear | – | No change (a decrease of less than 1% from the initial value to the detected content is denoted as "no change") | No change (a decrease of less than 1% from the initial value to the detected content is denoted as "no change") | – |
| CC(C)C[C@H](NC(=O)[C@H](CCCNC(=N)N)NC(=O)CNC(=O)[C@H](CC(C)C)NC(=O)[C@@H](NC(=O)[C@H](C)NC(=O)[C@@H](NC(=O)[C@H](CO)NC(=O)[C@H](CC(C)C)NC(=O)[C@H](CCC(N)=O)NC(=O)[C@H](CO)NC(=O)[C@H](C)NC(=O)CC[C@H](NC(=O)CCCCCCCCCCCCCCCCCCC(=O)O)C(=O)O)[C@@H](C)O)C(C)C)C(=O)N[C@@H](CO)C(=O)N[C@@H](CCC(N)=O)C(=O)N[C@@H](CCC(=O)O)C(=O)N[C@@H](CC(C)C)C(=O)N[C@@H](Cc1c[nH]cn1)C(=O)N[C@@H](CCCNC(=N)N)C(=O)N[C@@H](CC(C)C)C(=O)N[C@@H](CCC(N)=O)C(=O)N[C@@H](CC(=O)O)C(=O)N[C@@H](Cc1ccc(O)cc1)C(=O)N1CCC[C@H]1C(=O)N[C@@H](CCCNC(=N)N)C(=O)N[C@H](C(=O)N[C@@H](CC(=O)O)C(=O)N[C@H](C(=O)NCC(=O)N[C@@H](C)C(=O)N[C@@H](CCC(=O)O)C(=O)N[C@@H](CO)C(=O)N1CCC[C@H]1C(N)=O)C(C)C)[C@@H](C)O [M20] ({C20 diacid-γGlu}-ASQLSTAVLGRLSQELHRLQDYPRTDVGAESP-NH2) | prominent effect | prominent effect | 0.017 nM | – | – | – | – | – | – |
